Data from patent publication US12582689B2, “Use of terpenoids in the treatment or prevention of fibrotic diseases” (ARJIL BIOTECH HOLDING COMPANY LIMITED, priority 2020, dated 2026).

Key:
Format in all cases: in vivo
[1] = test system: lung MPO activity; test: Bleomycin-induced pulmonary fibrosis in mice: lung myeloperoxidase (MPO) assay; conditions: BLM mice; compared with BLM group, p<0.001; FIG. 36
Description: (§1) Mice were divided into fifth groups with 5 animals per group according to body weight: control group, BLM group, BLM+DEX group (7.5 mg/kg), BLM+ACH dosage group (50 mg/kg), and BLM+ACM dosage group (2.5 mg/kg), BLM+ACH dosage group (50 mg/kg), and BLM+ACM dosage group (25 mg/kg) BLM+AH dosage group (50 mg/kg), and BLM+AM dosage group (25 mg/kg) BLM+BH dosage group (50 mg/kg), and BLM+BM dosage group (25 mg/kg) BLM+CH dosage group (50 mg/kg), and BLM+CM dosage group (25 mg/kg) BLM+DH dosage group (50 mg/kg), and BLM+DM dosage group (25 mg/kg) BLM+EH dosage group (50 mg/kg), and BLM+EM dosage group (25 mg/kg) BLM. Pulmonary fibrosis (PF) was established in mice via a single intratracheal administration of BLM at 7.5 mg/kg mg/kg body weight. Different doses of samples were intragastrically administered daily for 21 days after BLM injury, and DEX was used as the positive control. Control and model groups received an equal volume of vehicle (0.9% NaCl) using the same schedule and route of administration.
The pulmonary MPO activity was a reliable index for estimating the infiltration of inflammatory cells in lungs. The lung tissues were homogenized and the MPO levels were detected with the kits according to manufacturer's instruction.

[2] = test system: bleomycin-induced pulmonary fibrosis in mice; test: Bleomycin-induced pulmonary fibrosis in mice: body and lung weight, lung index, histopathology, hydroxyproline; conditions: BLM mice; for hydroxyproline (HP) content in lung tissue: extract 1.0 g/kg, compound high-dose groups (50 mg/kg), p<0.001, FIG. 34; for Pulmonary index [(lung weight/body weight)×100]: BLM group 1.60 ± 0.02
Description: Specific pathogen-free ICR mice (males) (body weights 18-22 g) were purchased from the BioLASCO Taiwan Co., Ltd. (Taipei, Taiwan). The animals were housed in Plexiglas cages at a constant temperature of 22±1° C. and a relative humidity of 55±5% on a 12 h dark-light cycle for at least 2 weeks before the experiment. Animals were provided food and water ad libitum. All experimental procedures were performed according to the guidelines of the Institutional Animal Ethics Committee, and the protocol was approved by the Committee for the Purpose of Control and Supervision of Experiments on Animals.
Pulmonary fibrosis (PF) was established in mice via a single intratracheal administration of BLM at 7.5 mg/kg mg/kg body weight. Different doses of samples were intragastrically administered daily for 21 days after BLM injury, and DEX was used as the positive control. Control and model groups received an equal volume of vehicle (0.9% NaCl) using the same schedule and route of administration.
Mouse body weights were recorded daily. Mice were sacrificed on the 21th day using excess chloral hydrate hydrochloride anesthesia. Blood was obtained for ELISA analyses, and whole lungs were removed and weighed. […] The pulmonary coefficient was calculated using the following equation: lung weight/body weight×100%

[3] = test system: CCl4-induced chronic liver fibrosis in SD rats; test: CCl4-induced chronic liver fibrosis in rat
Description: Blood samples are collected at week 0, 2, 4, 6, and 8. The animals are sacrificed at the end of the 8-week for histopathological examinations. FIGS. 7A, 7B, 7C depict delta weight, liver weight, and liver/body-weight ratio, respectively.
The level of clinical biochemistry such as aspartate aminotransferase (AST), alanine aminotransferase (ALT), is evaluated to determine the enzymatic activities of the livers of the control groups and the experimental groups (shown in FIGS. 8A-8C).

[4] = test system: TNF-α, IL-1β, IL-6 and TGF-β; test: Bleomycin-induced pulmonary fibrosis in mice: pro-inflammatory cytokines by ELISA; conditions: extract 1.0 g/kg, BH and DH (50 mg/kg), p<0.001, FIG. 35
Description: as §1, with “administration. […]” for “administration.”
The serum concentration of the pro-inflammatory cytokines (i.e. tumor necrosis factor-α (TNF-α), interleukin-6 (IL-6), and IL-1β) in serum were assessed with relevant enzyme-linked immunosorbent assay (ELISA) kits (Biosource International Inc., Sunnyvale, CA, USA), based on the manufacturer's instructions. […]

[5] = test system: TNF-α, IL-1β, IL-6 and TGF-β levels in serum; test: Cisplatin-induced renal injury mice: serum pro-inflammatory cytokines by ELISA; conditions: cisplatin-treated mice, extract at 1000 mg/kg, FIG. 4
Description: TNF-α, IL-6, and IL-1β cytokines in serum The serum concentration of the pro-inflammatory cytokines (i.e. tumor necrosis factor-α (TNF-α), interleukin-6 ([…]), and IL-1β) in serum are assessed with relevant enzyme-linked immunosorbent assay ([…]) kits (Biosource International Inc., Sunnyvale, CA, USA), based on the manufacturer's instructions.
(§2) Seven-to-eight-week-old male C57BL/6 mice are obtained from the BioLASCO Taiwan Co., Ltd, (Taipei, Taiwan). The animals are housed in Plexiglas cages at a constant temperature of 22±1° C. and a relative humidity of 55±5% on a 12 h dark-light cycle for at least 2 weeks before the experiment. Animals are provided food and water ad libitum. All experimental procedures are performed according to the guidelines of the institutional Animal Ethics Committee, and the protocol is approved by the Committee for the Purpose of Control and Supervision of Experiments on Animals.
Renal fibrosis is induced via multiple injections of low-dose cisplatin. Intraperitoneal injections of cisplatin (5 mg/kg/injection; P4394, Sigma-Aldrich, St Louis, MO) are performed at 0, 1, and 3 weeks, for a total of 3 injections. Mice are sacrificed at 6 weeks after the first dose of cisplatin (n=6). To analyze the effects of samples, mice are given daily intraperitoneal injections for 7 days, starting from 4 weeks after first dose of cisplatin, and sacrificed at 4 weeks (n=6). […]

[6] = test system: cisplatin-induced renal injury in C57BL/6 mice; test: Mice model of cisplatin-induced renal injury: serum CRE/BUN and kidney histopathology; conditions: for renal protection: normalization of serum CRE and BUN: cisplatin-treated mice, extracts at 1000 mg/kg, compound doses not given, p<0.001 vs cisplatin group
Description: Determination of biochemical parameters Serum creatinine and serum urea are assessed using colorimetric kits according to manufacturer's instructions. Kits of the former markers are purchased from (HUMAN Diagnostics Worldwide, Magdeburg, Germany) with a chemical analyzer (Roche Diagnostics, Cobas Mira Plus, Rotkreuz, Switzerland).
Kidney histopathology The anterior portion of the […] from each mouse is fixed in 10% formaldehyde phosphate butler, embedded in paraffin, cut into 5 μm sections, and then treated with an hematoxylin and eosin (H&E) stain for histological examination under the light microscopy (Nikon, ECLIPSE, TS100, Tokyo, Japan). Images are captured with a digital camera (NIS-Elements D 2.30, SP4, Build 387) at an original magnification of 400×.
as §2
Renal fibrosis is induced via multiple injections of low-dose cisplatin. Intraperitoneal injections of cisplatin (5 mg/kg/injection; P4394, Sigma-Aldrich, St Louis, MO) are performed at 0, 1, and 3 weeks, for a total of 3 injections. Mice are sacrificed at 6 weeks after the first dose of cisplatin (n=6). To analyze the effects of samples, mice are given daily intraperitoneal injections for 7 days, starting from 4 weeks after first dose of cisplatin, and sacrificed at 4 weeks (n=6).

Compound	lung MPO activity [1]	hydroxyproline (HP) content in lung tissue [2]	TNF-α, IL-1β, IL-6 and TGF-β production after BLM challenge [4]	renal protection: normalization of serum CRE and BUN [6]	other results
C=C(CC[C@@H](C)[C@H]1CC[C@H]2C3=C(C(=O)C[C@]12C)[C@@]1(C)CC[C@@H](O)[C@](C)(O)[C@@H]1C[C@@H]3O)[C@@H](C)C(=O)O (racemic) [AR101-DS1, RS-Antcin K]	evidently suppressed the MPO activities				
C=C(CC[C@@H](C)[C@H]1CC[C@H]2C3=C(C(=O)C[C@]12C)[C@@]1(C)CC[C@@H](O)[C@](C)(O)[C@@H]1C[C@@H]3O)[C@@H](C)C(=O)O (stereo in doubt) [AR101-DS1, RS-Antcin K]		reduced lung HP			
C=C1C(=O)O[C@H]2/C=C(\C)CC3C=C(CC/C=C(\C)CC[C@H]12)C(=O)O3 (stereo partly shown) [AR100-DS1, Ovatodiolide]	evidently suppressed the MPO activities	reduced lung HP	improved TNF-α, IL-1β, IL-6 and TGF-β production	significant renal protection effect	liver weight ([3]; 50 mg/kg, SD rats, 8 weeks CCl4, compared to Vehicle and Naïve group): significantly larger; liver appearance ([3]; 50 mg/kg, after 8 weeks of CCl4 induction): smooth surface without atrophy and sclerosis; serum AST and ALT level ([3]; 50 mg/kg, at W6 and W8, compared with the vehicle group): less AST and ALT increases; CCl4-induced liver injury, overall ([3]; SD rats, 8 weeks CCl4): potential to partially repair CCl4-induced liver injury; serum NO, TNF-α, IL-1β and IL-6 production after cisplatin challenge [5]: improved NO, TNF-α, IL-1β, and IL-6 production; kidney histopathology (H&E): necrosis and inflammatory infiltrating cells ([6]; cisplatin-stimulated mice, extract at 1000 mg/kg, FIG. 3): significantly improved necrosis and inflammatory infiltrating cells
C=C(CC[C@@H](C(=O)O)[C@H]1CC[C@@]2(C)C3=CC[C@H]4C(C)(C)[C@@H](O)CC[C@]4(C)C3=CC[C@]12C)C(C)C [AR101-DS4, Dehydroeburicoic Acid]				significant renal protection effect	
Dehydrosulphurenic acid/Sulphurenic acid [AR101-DS2]	evidently suppressed the MPO activities	reduced lung HP	improved TNF-α, IL-1β, IL-6 and TGF-β production		Pulmonary index [(lung weight/body weight)×100] ([2]; 25 mg/kg daily for 21 days): 1.26 ± 0.03; Pulmonary index [(lung weight/body weight)×100] ([2]; 50 mg/kg daily for 21 days, 50 mg/kg): 1.01 ± 0.02; Pulmonary index [(lung weight/body weight)×100] ([2]; 50 mg/kg daily for 21 days, listed as BH, 50 mg/kg): significant decrease
